Broadly, the IC50 is the concentration that gives 50% inhibition. A low value points to inhibition by little substance.

These results are taken from BindingDB's records for doi:10.1021/jm8011905 (National Taiwan University, 2009).

This test addresses Genome polyprotein (Hepatitis C virus genotype 1b (isolate Taiwan), UniProt P29846). As to the kind of experiment: Fluorescence Resonant Energy Transfer (FRET) Helicase Assay. Conditions: pH 7; 22 °C. How it is done:
The enzyme was assayed the DNA helicase activity by using DNA substrate (annealed BHQ1-labeled release strand and FITC-labeled template strand) in the presence of test compound. The substrate was monitored by the fluorescence quenching of FITC. The assay mixture was added to a 384-well microplate and monitored continuously at an excitation of 485 nm and an emission of 518 nm using a Fluoroskan Ascent microplate fluorescence reader (LabSystems, VA). The original data were normalized by the formula of relative helicase activity (%). When the inhibition of helicase activity was more than 50% at a concentration of 100 uM, the IC50 values were determined by curve fitting using SigmaPlot2000 of logistic with three parameters.

Sequence of Genome polyprotein (P29846 1027-1657 limits assumed): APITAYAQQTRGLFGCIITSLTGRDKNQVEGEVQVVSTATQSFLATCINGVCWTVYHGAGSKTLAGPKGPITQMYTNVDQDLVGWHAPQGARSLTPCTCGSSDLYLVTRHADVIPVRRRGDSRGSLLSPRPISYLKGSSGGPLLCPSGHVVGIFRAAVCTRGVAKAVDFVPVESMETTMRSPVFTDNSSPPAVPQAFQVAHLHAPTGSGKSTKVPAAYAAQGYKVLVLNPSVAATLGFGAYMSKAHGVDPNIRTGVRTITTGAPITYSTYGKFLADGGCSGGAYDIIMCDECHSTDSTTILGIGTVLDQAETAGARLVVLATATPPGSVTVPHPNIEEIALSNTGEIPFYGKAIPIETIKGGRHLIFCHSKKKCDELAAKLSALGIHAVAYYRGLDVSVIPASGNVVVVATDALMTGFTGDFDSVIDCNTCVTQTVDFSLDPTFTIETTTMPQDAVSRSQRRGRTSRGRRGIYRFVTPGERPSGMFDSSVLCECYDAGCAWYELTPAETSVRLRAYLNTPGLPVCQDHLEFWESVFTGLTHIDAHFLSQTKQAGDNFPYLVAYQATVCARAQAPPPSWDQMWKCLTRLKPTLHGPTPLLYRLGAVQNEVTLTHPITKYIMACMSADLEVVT

For `O=S(=O)(O)c1ccc(Nc2ccc([C+](c3ccc(Nc4cccc(S(=O)(=O)O)c4)cc3)c3ccc(Nc4cccc(S(=O)(=O)O)c4)cc3)cc2)cc1` [BHT, 1], half-maximal inhibition (IC50) was put at 40 µM.
